How the values were obtained:
Format in all cases: cell-based, human
CLTA Off 1 = test: High-throughput DNA sequencing of genome modifications; conditions: 500 ng Cas9 plasmid; for Mod. Freq (indels/total sequences), CLTA Off 1: Table 4
Description: (§1) We assayed these Cas9:sgRNA combinations in human cells for their ability to modify the three on-target loci as well as 11 known off-target genomic sites (Table 3)^4,5,10,13. Cells were treated with or without 1 μM 4-HT during transfection, and after 12 h the media was replaced with fresh media lacking 4-HT. […] Genomic DNA was isolated 60 h post-transfection and analyzed by high-throughput DNA sequencing
(§2) High-throughput DNA sequencing of genome modifications. HEK293-GFP stable cells were transfected with plasmids expressing Cas9 (500 ng) and sgRNA (125 ng) as described above. […] 4-HT (1 μM final), where appropriate, was added during transfection. 12 h after transfection, the media was replaced with full serum media without 4-HT. Genomic DNA was isolated and pooled from three biological replicates 60 h after transfection using a previously reported^11 protocol with a DNAdvance Kit (Agencourt). 150 ng or 200 ng of genomic DNA was used as a template to amplify by PCR the on-target and off-target genomic sites with flanking HTS primer pairs described previously^11. PCR products were purified using RapidTips (Diffinity Genomics) and quantified using the PicoGreen dsDNA Assay Kit (Invitrogen). Purified DNA was PCR amplified with primers containing sequencing adaptors, purified with the MinElute PCR Purification Kit (Qiagen) and AMPure XP PCR Purification (Agencourt). Samples were sequenced on a MiSeq high-throughput DNA sequencer (Illumina), and sequencing data was analyzed as described previously^4.
(§3) Sensitivity limit of off-target cleavage assays. We used paired end sequencing to identify indels caused by genomic on- and off-target cleavage. […] A 1 ng sample of human gDNA represents only ˜330 unique genomes, and thus only ˜330 unique copies of each genomic site are present. PCR amplification for each genomic target was performed on a total of 150 ng or 200 ng of input gDNA, which provides amplicons derived from at most 50,000 or 65,000 unique gDNA copies, respectively. Therefore, the high-throughput sequencing assay cannot detect rare genome modification events that occur at a frequency of less than approximately 1 in 50,000 (0.002%). When comparing between two conditions, such as wt Cas9 vs. intein-Cas9, this threshold becomes approximately 10 in 50,000 (0.02%) when using the Fisher exact test and a conservative multiple comparison correction (Bonferroni with 14 samples). See also Minoche, A. E., Dohm, J. C., & Himmelbauer, H. Evaluation of genomic high-throughput sequencing data generated on Illumina HiSeq and Genome Analyzer systems. Genome Biology 12, R112 (2011).

CLTA Off 2 = test: as above; conditions: 500 ng Cas9 plasmid; for Mod. Freq (indels/total sequences), CLTA Off 2: Table 4
Description: as §1, §2, §3

CLTA Off 3 = test: as above; conditions: 500 ng Cas9 plasmid; for Mod. Freq (indels/total sequences), CLTA Off 3: Table 4
Description: as §1, §2, §3

CLTA On = test: as above; conditions: 500 ng Cas9 plasmid; for Mod. Freq (indels/total sequences), CLTA On: Table 4
Description: as §1, §2, §3

EMX Off 1 = test: as above; conditions: 500 ng Cas9 plasmid; for Mod. Freq (indels/total sequences), EMX Off 1: Table 4
Description: as §1, §2, §3

EMX Off 2 = test: as above; conditions: 500 ng Cas9 plasmid; for Mod. Freq (indels/total sequences), EMX Off 2: Table 4
Description: as §1, §2, §3

EMX Off 3 = test: as above; conditions: 500 ng Cas9 plasmid; for Mod. Freq (indels/total sequences), EMX Off 3: Table 4
Description: as §1, §2, §3

EMX Off 4 = test: as above; conditions: 500 ng Cas9 plasmid; for Mod. Freq (indels/total sequences), EMX Off 4: Table 4
Description: as §1, §2, §3

EMX On = test: as above; conditions: 500 ng Cas9 plasmid; for Mod. Freq (indels/total sequences), EMX On: Table 4
Description: as §1, §2, §3

VEGF Off 1 = test: as above; conditions: 500 ng Cas9 plasmid; for Mod. Freq (indels/total sequences), VEGF Off 1: Table 4
Description: as §1, §2, §3

VEGF Off 2 = test: as above; conditions: 500 ng Cas9 plasmid; for Mod. Freq (indels/total sequences), VEGF Off 2: Table 4
Description: as §1, §2, §3

VEGF Off 3 = test: as above; conditions: 500 ng Cas9 plasmid; for Mod. Freq (indels/total sequences), VEGF Off 3: Table 4
Description: as §1, §2, §3

VEGF Off 4 = test: as above; conditions: 500 ng Cas9 plasmid; for Mod. Freq (indels/total sequences), VEGF Off 4: Table 4
Description: as §1, §2, §3

VEGF On = test: as above; conditions: 500 ng Cas9 plasmid; for Mod. Freq (indels/total sequences), VEGF On: Table 4
Description: as §1, §2, §3

[1] = test system: EMX, VEGF, and CLTA genomic loci; test: High-throughput DNA sequencing of genome modifications, summary over on-target and off-target sites
Description: as §1, §2, §3

HEK293-GFP stable cells = test: Western blot analysis of intein splicing; conditions: FIG. 6
Description: FIGS. 6A-6B. […] 12 h after transfection, cells were treated with or without 4-HT (1 μM). Cells were lysed and pooled from three technical replicates 4, 8, 12, or 24 h after 4-HT treatment. An anti-FLAG antibody (Sigma-Aldrich F1804) and an anti-mouse 800CW IRDye (LI-COR) were used to visualize the gel. Lanes 1 and 2 contain purified dCas9-VP64-3×FLAG protein and lysate from untransfected HEK293 cells, respectively.
Western blot analysis of intein splicing. HEK293-GFP stable cells were transfected with 500 ng Cas9 expression plasmid and 125 ng sgRNA expression plasmid. 12 h after transfection, the media was replaced with full serum media, with or without 4-HT (1 μM). Cells were lysed and pooled from three technical replicates 4, 8, 12, or 24 h after 4-HT treatment. Samples were run on a Bolt 4-12% Bis-Tris gel (Life Technologies). An anti-FLAG antibody (Sigma-Aldrich F1804) and an anti-mouse 800CW IRDye (LI-COR) were used to visualize the gel on an Odyssey IR imager.

## intein(Ser219)-Cas9: Cas9 with 37R3-2 intein replacing Ser219 (SEQ ID NO: 30)
CLTA Off 1; +4-HT (1 μM, 12 h)
  Mod. Freq (indels/total sequences), CLTA Off 1: 0.36%
CLTA Off 1; +4-HT, Table 6
  Mod Freq (indels/total sequences), CLTA Off 1: 0.23%
CLTA Off 1; −4-HT
  Mod. Freq (indels/total sequences), CLTA Off 1: 0.01%
CLTA Off 2; +4-HT (1 μM, 12 h)
  Mod. Freq (indels/total sequences), CLTA Off 2: 0.00%
CLTA Off 2; +4-HT, Table 6
  Mod Freq (indels/total sequences), CLTA Off 2: 0.00%
CLTA Off 2; −4-HT
  Mod. Freq (indels/total sequences), CLTA Off 2: 0.00%
CLTA Off 3; +4-HT (1 μM, 12 h)
  Mod. Freq (indels/total sequences), CLTA Off 3: 0.03%
CLTA Off 3; +4-HT, Table 6
  Mod Freq (indels/total sequences), CLTA Off 3: 0.01%
CLTA Off 3; −4-HT
  Mod. Freq (indels/total sequences), CLTA Off 3: 0.00%
CLTA On; +4-HT (1 μM, 12 h)
  Mod. Freq (indels/total sequences), CLTA On: 14.48%
CLTA On; +4-HT, Table 6
  Mod Freq (indels/total sequences), CLTA On: 9.13%
CLTA On; −4-HT
  Mod. Freq (indels/total sequences), CLTA On: 4.30%
EMX Off 1; +4-HT (1 μM, 12 h)
  Mod. Freq (indels/total sequences), EMX Off 1: 0.42%
EMX Off 1; +4-HT, Table 6
  Mod Freq (indels/total sequences), EMX Off 1: 0.20%
EMX Off 1; −4-HT
  Mod. Freq (indels/total sequences), EMX Off 1: 0.01%
EMX Off 2; +4-HT (1 μM, 12 h)
  Mod. Freq (indels/total sequences), EMX Off 2: 0.04%
EMX Off 2; +4-HT, Table 6
  Mod Freq (indels/total sequences), EMX Off 2: 0.04%
EMX Off 2; −4-HT
  Mod. Freq (indels/total sequences), EMX Off 2: 0.02%
EMX Off 3; +4-HT (1 μM, 12 h)
  Mod. Freq (indels/total sequences), EMX Off 3: 0.77%
EMX Off 3; +4-HT, Table 6
  Mod Freq (indels/total sequences), EMX Off 3: 0.54%
EMX Off 3; −4-HT
  Mod. Freq (indels/total sequences), EMX Off 3: 0.05%
EMX Off 4; +4-HT (1 μM, 12 h)
  Mod. Freq (indels/total sequences), EMX Off 4: 3.16%
EMX Off 4; +4-HT, Table 6
  Mod Freq (indels/total sequences), EMX Off 4: 2.18%
EMX Off 4; −4-HT
  Mod. Freq (indels/total sequences), EMX Off 4: 0.19%
EMX On; +4-HT (1 μM, 12 h)
  Mod. Freq (indels/total sequences), EMX On: 13.57%
EMX On; +4-HT, Table 6
  Mod Freq (indels/total sequences), EMX On: 8.25%
EMX On; −4-HT
  Mod. Freq (indels/total sequences), EMX On: 1.87%
VEGF Off 1; +4-HT (1 μM, 12 h)
  Mod. Freq (indels/total sequences), VEGF Off 1: 8.50%
VEGF Off 1; +4-HT, Table 6
  Mod Freq (indels/total sequences), VEGF Off 1: 4.61%
VEGF Off 1; −4-HT
  Mod. Freq (indels/total sequences), VEGF Off 1: 0.43%
VEGF Off 2; +4-HT (1 μM, 12 h)
  Mod. Freq (indels/total sequences), VEGF Off 2: 1.49%
VEGF Off 2; +4-HT, Table 6
  Mod Freq (indels/total sequences), VEGF Off 2: 0.90%
VEGF Off 2; −4-HT
  Mod. Freq (indels/total sequences), VEGF Off 2: 0.08%
VEGF Off 3; +4-HT (1 μM, 12 h)
  Mod. Freq (indels/total sequences), VEGF Off 3: 0.37%
VEGF Off 3; +4-HT, Table 6
  Mod Freq (indels/total sequences), VEGF Off 3: 0.16%
VEGF Off 3; −4-HT
  Mod. Freq (indels/total sequences), VEGF Off 3: 0.04%
VEGF Off 4; +4-HT (1 μM, 12 h)
  Mod. Freq (indels/total sequences), VEGF Off 4: 3.89%
VEGF Off 4; +4-HT, Table 6
  Mod Freq (indels/total sequences), VEGF Off 4: 2.03%
VEGF Off 4; −4-HT
  Mod. Freq (indels/total sequences), VEGF Off 4: 0.10%
VEGF On; +4-HT (1 μM, 12 h)
  Mod. Freq (indels/total sequences), VEGF On: 3.66%
VEGF On; +4-HT, Table 6
  Mod Freq (indels/total sequences), VEGF On: 3.17%
VEGF On; −4-HT
  Mod. Freq (indels/total sequences), VEGF On: 1.05%
[1]; absence of 4-HT
  Activity compared to wild-type Cas9: much less active
[1]; presence of 4-HT
  Activity compared to wild-type Cas9: slightly less active than wild-type Cas9
HEK293-GFP stable cells; absence of 4-HT
  Spliced product (Western blot): no spliced product was detected
HEK293-GFP stable cells; earliest assayed time point (4 h) following 4-HT treatment (1 μM)
  Spliced product (Western blot): presence of spliced product

From US11578343B2, “CAS9 proteins including ligand-dependent inteins” (President and Fellows of Harvard College, priority 2014, dated 2023)
